The series is described as follows: Cytotoxicity activity against human HepG2 cells assessed by CellTiter-Glo luminescent cell viability assay. The series is classed as toxicity, cell-based. Set-up: assay stage confirmatory assay, source tissue liver. Conditions: HepG2 cells, read-out: IC50 relative. On the technique in general: Cellular ATP, detected with luciferase, serves as a proxy for viable cell number.

Active and inactive are the calls of the source. No rule for the calls is given here. Bounds are passed on as bounds.

As for `CCN1CCS/C1=C\C=C\C1=[N+](CC)CCS1`, the CC50 is 6.3 µM (active).

As for `Cc1oc2c(c1C(=O)c1ccc(Cl)cc1)C(=O)C(=O)c1ccccc1-2`, the CC50 is 31.4 µM (inactive).

Take `O=C1C=C(N(CCO)Cc2ccccc2)c2ccccc2C1=O`: the CC50 was 4.4 µM (active).

Turning to `CN(C)/C=C/C=C/C=C/C1=[N+](C)c2ccccc2C1(C)C`, the CC50 was 10.3 µM (active).

As for `CC(C)c1ccc(S(=O)(=O)/N=C2/C=C(Sc3nc[nH]n3)C(=O)c3ccccc32)cc1`, the CC50 was 5.8 µM (active).

In the case of `O=S(=O)(Nc1cc(Sc2nc[nH]n2)c(O)c2ccccc12)c1ccc(Cl)cc1`, the CC50 is 5.7 µM (active).

`COc1cccc2c1C(=O)c1c(O)c3c(c(O)c1C2=O)CC(O)(C(=O)CO)CC3OC1CC(N)C(O)C(C)O1` (centres undefined): the CC50 is 0.4 µM (active).

With `C=C(C)[C@@H]1Cc2c(ccc3c2O[C@H]2COc4cc(OC)c(OC)cc4[C@H]2C3=O)O1`, the CC50 was 0.3 µM (active).

For the molecule `Cc1ccc(S(=O)(=O)/N=C2\C=C(Sc3nc[nH]n3)C(=O)c3ccccc32)cc1`, the CC50 is 4.8 µM (active).

In the case of `CCNc1cc2[o+]c3cc(NCC)c(C)cc3c(-c3ccccc3C(=O)OCC)c2cc1C`, the CC50 is 1 µM (active).

Take `CCN(CC)c1ccc(/C=C/C2=[N+](C)c3ccccc3C2(C)C)cc1`: the CC50 is 1.2 µM (active).

As for `CC1CCC/C=C\C2CC(O)CC2C(O)/C=C\C(=O)O1` (centres undefined), the CC50 was < 0.1 µM (active).

In the case of `Cc1ccc(-c2cccc(CN3[C@@H]4CC[C@H]3[C@H]3CNC[C@H]34)c2)o1`, the CC50 was 8.8 µM (active).

As to `N[C@@H](Cc1ccccc1)C(=O)N1C/C(=C\c2ccc(Cl)c(Cl)c2)C(=O)/C(=C/c2ccc(Cl)c(Cl)c2)C1`, the CC50 was 7.9 µM (active).

Consider `CC[n+]1c(/C=C2/C=CN(C)c3ccccc32)ccc2ccccc21`, for which the CC50 is 2.3 µM (active).

Turning to `CCOC(=O)CNS(=O)(=O)c1cc(-c2nnc(Nc3cccc(O)c3)c3ccccc23)ccc1C`, the CC50 was 4.1 µM (active).

For the molecule `Cn1ncnc2c(=O)n(C)c(=O)nc1-2`, the CC50 is 0.2 µM (active).

On to `CCN(CC)C(=S)SSC(=S)N(CC)CC`, for which the CC50 is 0.3 µM (inactive).

As to `O=C(c1ccc(F)c(F)c1Nc1ccc(I)cc1F)N1CC(O)(C2CCCCN2)C1` (racemic), the CC50 was < 0.1 µM (active).

Take `O=C1Nc2cc(Br)ccc2/C1=C1/Nc2ccccc2/C1=N\O` [6BIO]: the CC50 was 26.5 µM (inactive).

For the molecule `CCc1c2c(nc3ccc(O)cc13)-c1cc3c(c(=O)n1C2)COC(=O)[C@]3(O)CC` [7-ETHYL-10-HYDROXYCAMPTOTHECIN], the CC50 was 0.2 µM (active).

`Nc1nc2nn[nH]c2c(=O)[nH]1` [8-AZAGUANINE]: the CC50 is 7.5 µM (active).

`CN(C)CC#Cc1ccc(OCCCc2sc(N3CCc4cccc(C(=O)Nc5nc6ccccc6s5)c4C3)nc2C(=O)O)c(F)c1` [A-1155463]: the CC50 was 2.3 µM (active).

Consider `CN(C)CC[C@H](CSc1ccccc1)Nc1ccc(S(=O)(=O)NC(=O)c2ccc(N3CCN(Cc4ccccc4-c4ccc(Cl)cc4)CC3)cc2)cc1[N+](=O)[O-]` [ABT 737], for which the CC50 is 13.2 µM (active).

`C=CCn1c(=O)c2cnc(Nc3ccc(N4CCN(C)CC4)cc3)nc2n1-c1cccc(C(C)(C)O)n1` [ADAVOSERTIB]: the CC50 was 4.5 µM (active).

For the molecule `CCN1CCN(Cc2ccc(-c3cc4c(N[C@H](C)c5ccccc5)ncnc4[nH]3)cc2)CC1` [AEE-788], the CC50 is 4.1 µM (active).

With `CN(C)C/C=C/C(=O)Nc1cc2c(Nc3ccc(F)c(Cl)c3)ncnc2cc1O[C@H]1CCOC1` [AFATINIB DIMALEATE], the CC50 is 2.3 µM (active).

As for `CC/C(=C(\c1ccc(O)cc1)c1ccc(OCCN(C)C)cc1)c1ccccc1` [AFIMOXIFENE], the CC50 was 3.9 µM (active).

For `CCc1cc2c(cc1N1CCC(N3CCOCC3)CC1)C(C)(C)c1[nH]c3cc(C#N)ccc3c1C2=O` [ALECTINIB], the CC50 was 18.9 µM (inactive).
